Patent US20150105252A1, “SUBSTITUTED PYRAZOLES AS HERBICIDES” (E I DU PONT DE NEMOURS AND COMPANY, priority 2013, published 2015)

Experiments:
[1] = test system: common ragweed; assay: Test A postemergence; format: in vivo, Ambrosia elation
Procedure, shortened: (§1)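 Seeds were sown in a loam soil–sand blend and given a directed soil spray preemergence; postemergence plants at 2–10 cm, one- to two-leaf stage, were sprayed with compound in non-phytotoxic solvent with surfactant. After about 10 days in a greenhouse, injury was visually rated against untreated controls (0 = no effect, 100 = complete control).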

[2] = test system: blackgrass; assay: Test A postemergence; format: in vivo, Alopecurus myosuroides
Procedure, shortened: as §1

[3] = test system: common ragweed; assay: Test A preemergence; format: in vivo, Ambrosia elation
Procedure, shortened: as §1

[4] = test system: ryegrass, Italian; assay: Test D preemergence; format: in vivo, Lolium multiflorum; details: scale 0 to 100
Source text: Seeds of plant species selected from bluegrass (annual bluegrass, Poa annua), blackgrass (Alopecurus myosuroides), canarygrass (littleseed canarygrass, Phalaris minor), chickweed (common chickweed, Stellaria media), galium (catchweed bedstraw, Galium aparine), bromegrass, downy (downy bromegrass, Bromus tectorum), field poppy (Papaver rhoeas), field violet (Viola arvensis), foxtail, green (green foxtail, Setaria viridis), deadnettle (henbit deadnettle, Lamium amplexicaule), ryegrass, Italian (Italian ryegrass, Lolium multiflorum), kochia (Kochia scoparia), lambsquarters (Chenopodium album), oilseed rape (Brassica napus), pigweed (redroot pigweed, Amaranthus retroflexus), chamomile (scentless chamomile, Matricaria inodora), speedwell (bird's-eye speedwell, Veronica persica), barley, spring (spring barley, Hordeum vulgare), wheat, spring (spring wheat, Triticum aestivum), buckwheat, wild (wild buckwheat, Polygonum convolvulus), mustard, wild (wild mustard, Sinapis arvensis), oat, wild (wild oat, Avena fatua), radish, wild (wild radish, Raphanus raphanistrum), windgrass (Apera spica-venti), Russian thistle (Salsola kali), barley, winter (winter barley, Hordeum vulgare), and wheat, winter (winter wheat, Triticum aestivum) were planted into a silt loam soil and treated preemergence with test chemicals formulated in a non-phytotoxic solvent mixture which included a surfactant.
At the same time, these species were planted in pots containing Redi-Earth® planting medium (Scotts Company, 14111 Scottslawn Road, Marysville, Ohio 43041) comprising spaghnum peat moss, vermiculite, wetting agent and starter nutrients and treated with postemergence applications of the test chemicals formulated in the same manner. Plants ranged in height from 2 to 18 cm (1- to 4-leaf stage). Treated plants and controls were maintained in a controlled growth environment for 14 to 21 days after which time all species were compared to controls and visually evaluated. Plant response ratings, summarized in Table D, are based on a scale of 0 to 100 where 0 is no effect and 100 is complete control. A dash (-) response means no test result.

[5] = test system: guineagrass; assay: Test E preemergence; format: in vivo, Panicum maximum; details: 21 days, scale 0 to 100
Source text: (§2) Seeds of plant species selected from bermudagrass (Cynodon dactylon), Surinam grass (Brachiaria decumbens), crabgrass, large (large crabgrass, Digitaria sanguinalis), crabgrass, naked (naked crabgrass, Digitaria nuda), foxtail, green (green foxtail, Setaria viridis), johnsongrass (Sorghum halepense), kochia (Kochia scoparia), morningglory (pitted morningglory, Ipomoea lacunosa), nutsedge, purple (purple nutsedge, Cyperus rotundus), ragweed (common ragweed, Ambrosia elation), mustard, black (black mustard, Brassica nigra), guineagrass (Panicum maximum), dallisgrass (Paspalum dilatatum), barnyardgrass (Echinochloa crus-galli), sandbur (southern sandbur, Cenchrus echinatus), sowthistle (common sowthistle, Sonchus oleraceous), ryegrass, Italian (Italian ryegrass, Lolium multiflorum), signalgrass (broadleaf signalgrass, Brachiaria platyphylla), dayflower, VA (Virginia (VA) dayflower, Commelina virginica), bluegrass (annual bluegrass, Poa annua), quackgrass (Elytrigia repens), mallow (common mallow, Malva sylvestris), buckwheat, wild (wild buckwheat, Polygonum convolvulus), leafy spurge (Euphorbia esula), common chickweed (Stellaria media), wild poinsettia (Euphorbia heterophylla), pigweed, palmer (palmer pigweed, Amaranthus palmeri), and pigweed (redroot pigweed, Amaranthus retroflexus) were planted into a blend of loam soil and sand and treated preemergence with test chemicals formulated in a non-phytotoxic solvent mixture which included a surfactant.
(§3) Treated plants and controls were maintained in a greenhouse for 21 days, after which time all species were compared to controls and visually evaluated. Plant response ratings, summarized in Table E, are based on a scale of 0 to 100 where 0 is no effect and 100 is complete control. A dash (-) response means no test result.

[6] = test system: mallow; assay: Test E preemergence; format: in vivo, Malva sylvestris; details: 21 days, scale 0 to 100
Source text: as §2, §3

[7] = test system: sowthistle; assay: Test E preemergence; format: in vivo, Sonchus oleraceous; details: 21 days, scale 0 to 100
Source text: as §2, §3

[8] = test system: Surinam grass; assay: Test E preemergence; format: in vivo, Brachiaria decumbens; details: 21 days, scale 0 to 100
Source text: as §2, §3

[9] = test system: sandbur; assay: Test E preemergence; format: in vivo, Cenchrus echinatus; details: 21 days, scale 0 to 100
Source text: as §2, §3

[10] = Postemergence, 500 g ai/ha, 0 to 100 scale (0 no effect, 100 complete control)
[11] = postemergence, 125 g ai/ha, about 10 days, visual rating on 0 to 100 scale (0 no effect, 100 complete control)
[12] = 500 g ai/ha, visual injury after approx. 10 days, 0 to 100 scale (0 no effect, 100 complete control)

## CCOc1cc(C(=O)NC2CC2)nn1Cc1ccnc(OC(F)F)c1 [Compound 133]
[1]; [10]
  Common Ragweed plant response rating: 100
[1]; [11]
  Common Ragweed plant response rating: 60
[2]; [10]
  Blackgrass plant response rating: 100
[2]; [11]
  Blackgrass plant response rating: 90
[3]; 125 g ai/ha, visual injury, 0 to 100 scale, approx. 10 days
  Common Ragweed plant response rating: 80
[3]; [12]
  Common Ragweed plant response rating: 90

## CCCc1cc(C(=O)NCC(F)(F)F)nn1Cc1cc(C(F)(F)F)nn1C [Compound 138]
[4]; 62 g ai/ha
  Plant response rating, Ryegrass, Italian: 35
[4]; 125 g ai/ha
  Plant response rating, Ryegrass, Italian: 70
[4]; 250 g ai/ha
  Plant response rating, Ryegrass, Italian: 90

## CCOc1cc(C(=O)NC(C)C)nn1Cc1ccnc(C(F)(F)F)c1 [Compound 188]
[4]; 62 g ai/ha
  Plant response rating, Ryegrass, Italian: 75
[4]; 125 g ai/ha
  Plant response rating, Ryegrass, Italian: 85
[4]; 250 g ai/ha
  Plant response rating, Ryegrass, Italian: 95

## CCOc1cc(C(=O)NC2CC2)nn1Cc1ccnc(C(F)(F)F)c1 [Compound 189]
[5]; 4 g ai/ha
  Plant response rating, Guineagrass: 30
[5]; 8 g ai/ha
  Plant response rating, Guineagrass: 75
[5]; 16 g ai/ha
  Plant response rating, Guineagrass: 100
[5]; 31 g ai/ha
  Plant response rating, Guineagrass: 100
[5]; 62 g ai/ha
  Plant response rating, Guineagrass: 100
[4]; 62 g ai/ha
  Plant response rating, Ryegrass, Italian: 40
[4]; 125 g ai/ha
  Plant response rating, Ryegrass, Italian: 60
[4]; 250 g ai/ha
  Plant response rating, Ryegrass, Italian: 95
[6]; 4 g ai/ha
  Plant response rating, Mallow: 90
[6]; 8 g ai/ha
  Plant response rating, Mallow: 65
[6]; 16 g ai/ha
  Plant response rating, Mallow: 100
[6]; 31 g ai/ha
  Plant response rating, Mallow: 98
[6]; 62 g ai/ha
  Plant response rating, Mallow: 100
[7]; 4 g ai/ha
  Plant response rating, Sowthistle: 98
[7]; 8 g ai/ha
  Plant response rating, Sowthistle: 98
[7]; 16 g ai/ha
  Plant response rating, Sowthistle: 100
[7]; 31 g ai/ha
  Plant response rating, Sowthistle: 100
[7]; 62 g ai/ha
  Plant response rating, Sowthistle: 100
[8]; 4 g ai/ha
  Plant response rating, Surinam Grass: 0
[8]; 8 g ai/ha
  Plant response rating, Surinam Grass: 0
[8]; 16 g ai/ha
  Plant response rating, Surinam Grass: 25
[8]; 31 g ai/ha
  Plant response rating, Surinam Grass: 80
[8]; 62 g ai/ha
  Plant response rating, Surinam Grass: 100
[9]; 4 g ai/ha
  Plant response rating, Sandbur: 0
[9]; 8 g ai/ha
  Plant response rating, Sandbur: 0
[9]; 16 g ai/ha
  Plant response rating, Sandbur: 0
[9]; 31 g ai/ha
  Plant response rating, Sandbur: 20
[9]; 62 g ai/ha
  Plant response rating, Sandbur: 90

## CCc1cc(C(=O)NCC(F)(F)F)nn1Cc1cc(OC(F)F)nn1C [Compound 206]
[1]; [10]
  Common Ragweed plant response rating: 30
[1]; [11]
  Common Ragweed plant response rating: 0
[2]; [10]
  Blackgrass plant response rating: 50
[2]; [11]
  Blackgrass plant response rating: 0
[3]; 125 g ai/ha, visual injury approx. 10 days after treatment
  Common Ragweed plant response rating (0 to 100 scale): 0
[3]; [12]
  Common Ragweed plant response rating: 40
